Series [1] deals with quadruple mutant N51I + C59R + S108N + I164L (QM) pfDHFR (Plasmodium falciparum, UniProt P13922, I164L/N51I). Briefly: Inhibition of quadruple mutant pfDHFR (Ki). The series is classed as biochemical. How it is done:
(§1) The synthesized 2,4-diamino-6-ethylpyrimdine derivatives as the hydrochloride salts were tested for the activities against Plasmodium falciparum (P. falciparum) according to the standard methods. These include the inhibition of dihydrofolate reductase (DHFR) enzymes of P. falciparum including, wild type (WT) and quadruple mutants (N51IC59RS108NI164L) (QM). The inhibition was expressed as inhibition constants (Ki) in nano molar (nM).

Series [2] has as its target T1, Human dihydrofolate reductase (hDHFR) (Homo sapiens, UniProt P00374).
T1 sequence (P00374 1-187): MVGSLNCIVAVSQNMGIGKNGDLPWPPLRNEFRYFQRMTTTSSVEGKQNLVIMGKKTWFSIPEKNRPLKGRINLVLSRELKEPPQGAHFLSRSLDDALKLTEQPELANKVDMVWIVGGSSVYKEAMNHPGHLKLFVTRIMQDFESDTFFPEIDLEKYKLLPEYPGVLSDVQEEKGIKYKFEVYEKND
Briefly: Inhibition of human dihydrofolate reductase (Ki). The series is classed as biochemical. Conditions: human DHFR; hydrochloride salts.

The subject of series [3] is P. falciparum V1/S (N51I + C59R + S108 + I164L). Briefly: microbe, parasite or virus in culture. It counts as cell-based, Plasmodium falciparum. Conditions: Plasmodium falciparum; in vitro, quadruple mutant strain V1/S; read-out: IC50 P. falciparum V1/S. From the text: (§2) In Vitro Antimalarial Activites Against P. falciparum and Cytotoxicity Towards Mammalian Cells (Vero Cells)

Series [4] has as its system P. falciparum TM4/8.2 (wild type). Briefly: microbe, parasite or virus in culture. It counts as cell-based, Plasmodium falciparum. The settings on record: Plasmodium falciparum; in vitro, wild-type strain TM4/8.2; read-out: IC50 P. falciparum TM4/8.2 (WT).
Text: as §2

Another series is described as follows: in vitro. The settings on record: African green monkey.
Text: as §2

In another series the target is wild type (WT) pfDHFR (Plasmodium falciparum, UniProt P13922, N108S/R59C). Briefly: Inhibition of wild type pfDHFR (Ki). The series is classed as biochemical. The method, then: as §1
Chain of wild type (WT) pfDHFR (P13922 whole entry R59C/N108S): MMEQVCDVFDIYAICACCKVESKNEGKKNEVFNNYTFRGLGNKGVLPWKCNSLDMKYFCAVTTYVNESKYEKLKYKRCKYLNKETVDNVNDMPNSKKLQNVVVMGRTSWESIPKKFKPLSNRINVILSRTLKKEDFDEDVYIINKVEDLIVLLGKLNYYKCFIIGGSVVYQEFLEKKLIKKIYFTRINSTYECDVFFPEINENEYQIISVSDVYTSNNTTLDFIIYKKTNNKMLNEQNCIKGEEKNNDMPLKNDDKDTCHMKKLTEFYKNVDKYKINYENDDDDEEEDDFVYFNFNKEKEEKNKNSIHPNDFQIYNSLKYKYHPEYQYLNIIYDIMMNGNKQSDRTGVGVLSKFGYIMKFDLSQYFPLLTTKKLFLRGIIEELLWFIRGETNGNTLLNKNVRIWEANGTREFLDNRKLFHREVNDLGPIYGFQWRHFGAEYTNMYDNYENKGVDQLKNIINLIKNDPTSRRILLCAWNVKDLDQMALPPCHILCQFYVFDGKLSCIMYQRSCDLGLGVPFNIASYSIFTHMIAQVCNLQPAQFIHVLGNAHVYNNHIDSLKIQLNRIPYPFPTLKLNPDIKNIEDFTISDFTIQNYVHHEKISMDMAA

Chain of quadruple mutant N51I + C59R + S108N + I164L (QM) pfDHFR (P13922 whole entry N51I/I164L): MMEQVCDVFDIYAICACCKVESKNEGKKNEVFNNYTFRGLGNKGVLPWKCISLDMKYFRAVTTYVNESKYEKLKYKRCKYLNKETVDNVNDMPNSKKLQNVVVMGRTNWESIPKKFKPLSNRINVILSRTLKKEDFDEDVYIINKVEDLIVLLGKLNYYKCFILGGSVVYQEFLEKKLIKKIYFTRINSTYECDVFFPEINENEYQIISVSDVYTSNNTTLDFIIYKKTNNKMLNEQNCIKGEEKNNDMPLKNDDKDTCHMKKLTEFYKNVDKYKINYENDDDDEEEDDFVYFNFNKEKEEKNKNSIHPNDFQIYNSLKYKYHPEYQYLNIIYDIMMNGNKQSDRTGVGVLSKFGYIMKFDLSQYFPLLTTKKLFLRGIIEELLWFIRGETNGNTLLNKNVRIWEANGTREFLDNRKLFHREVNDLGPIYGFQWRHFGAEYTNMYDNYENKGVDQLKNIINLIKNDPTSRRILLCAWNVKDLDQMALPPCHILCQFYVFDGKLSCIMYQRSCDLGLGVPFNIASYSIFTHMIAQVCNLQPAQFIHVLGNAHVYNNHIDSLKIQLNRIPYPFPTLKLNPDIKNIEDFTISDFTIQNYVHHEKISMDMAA

In the case of `CCc1nc(N)nc(N)c1-c1cn(-c2ccccc2)nn1` [Compound 1], the Ki was determined as 6.02 ± 0.772 µM in series [1] and 0.0497 ± 0.00418 µM at wild type (WT) pfDHFR. Besides, the “Ki hDHFR” value in series [2] is given as “High”. In addition, the IC50 (in series [3]; in series [4]; in the series “in vitro”) was more than 50 µM each time.
For `CCc1nc(N)nc(N)c1OCCCc1cn(-c2cccc(C(=O)O)c2)nn1` [Compound 23], the Ki in series [1] worked out at 0.00042 ± 6e-05 µM; in series [2], 0.0227 ± 0.00276 µM; at wild type (WT) pfDHFR it was 0.00025 ± 2e-05 µM. For the same compound, the results for the IC50 (in series [3]; in series [4]; in “in vitro”) were 0.32 ± 0.12 µM, 0.0064 ± 0.0005 µM and more than 25 µM, respectively.
As to `CCc1nc(N)nc(N)c1OCCCc1cc(-c2cccc(C(=O)OC)c2)no1` [Compound 48], the figures for the Ki (in series [1]; in series [2]; on wild type (WT) pfDHFR) were 0.00087 ± 0.00015 µM, 0.0252 ± 0.0089 µM and 0.00026 ± 7e-05 µM, respectively. Besides, the values for the IC50 (in series [3]; in series [4]; in “in vitro”) were 0.1 ± 0.03 µM, 0.045 ± 0.0015 µM and 0.76 µM, respectively.
Regarding `CCc1nc(N)nc(N)c1-c1cn(CCOc2ccc(C(=O)OC)cc2)nn1` [Compound 10], the figures for the Ki (in series [1]; on wild type (WT) pfDHFR) were 0.00696 ± 0.00112 µM and 0.00101 ± 4e-05 µM, respectively. For the same compound, in series [2], the “Ki hDHFR” value is given as “High”. Besides, the figures for the IC50 (in series [3]; in series [4]; in the series “in vitro”) were 21 ± 4.49 µM, 0.88 ± 0.36 µM and 38.9 ± 2.14 µM, respectively.
As to `CCc1nc(N)nc(N)c1OCc1cc(-c2cccc(C(=O)O)c2)no1` [Compound 40], the Ki turned out to be 0.00212 ± 0.00017 µM in series [1], 0.279 ± 0.0247 µM in series [2] and 0.00128 ± 0.00013 µM at wild type (WT) pfDHFR. Moreover, the IC50 was 3.38 ± 1.06 µM in series [3], 0.28 ± 0.13 µM in series [4] and more than 50 µM in “in vitro”.
As to `CCc1nc(N)nc(N)c1OCc1coc(-c2ccc(OCC(=O)O)cc2)n1` [Compound 57], the Ki in series [1] was found to be 0.078 ± 0.00644 µM; in series [2], 0.716 ± 0.0783 µM; at wild type (WT) pfDHFR it was 0.00084 ± 8e-05 µM. The IC50 in series [3] is more than 50 µM; in series [4], 0.73 ± 0.17 µM; in the series “in vitro”, more than 50 µM.
As for `CCc1nc(N)nc(N)c1OCc1coc(-c2cccc(OCC(=O)OCc3ccccc3)c2)n1` [Compound 53], the Ki in series [1] is 0.0455 ± 0.00502 µM; in series [2], 0.681 ± 0.0703 µM; on wild type (WT) pfDHFR it was 0.00083 ± 8e-05 µM. Further, the IC50 in series [3] is more than 10 µM; in series [4], 1.76 ± 0.67 µM; in the series “in vitro”, more than 10 µM.
`CCc1nc(N)nc(N)c1OCc1csc(-c2ccc(Cl)cc2)n1` [Compound 70]: the Ki in series [1] worked out at 0.0302 ± 0.00159 µM; in series [2], 0.286 ± 0.0471 µM; at wild type (WT) pfDHFR, 0.00074 ± 9e-05 µM. The figures for the IC50 (in series [3]; in series [4]; in the series “in vitro”) were 24.3 ± 9.37 µM, 1.18 ± 0.03 µM and 63.5 ± 17.6 µM, respectively.
Turning to `CCc1nc(N)nc(N)c1OCc1csc(-c2ccc(OCC(=O)OCc3ccccc3)cc2)n1` [Compound 72], the Ki was determined as 0.0303 ± 0.00563 µM in series [1], 0.14 ± 0.022 µM in series [2] and 0.0008 ± 9e-05 µM on wild type (WT) pfDHFR. Also, the IC50 in series [3] is more than 50 µM; in series [4], 0.23 ± 0.03 µM; in “in vitro”, more than 50 µM.
Take `CCc1nc(N)nc(N)c1OCc1csc(-c2cccc(OCC(=O)OCc3ccccc3)c2)n1` [Compound 63]: the Ki was found to be 0.0339 ± 0.00185 µM in series [1], 0.118 ± 0.0148 µM in series [2] and 0.00075 ± 0.0001 µM at wild type (WT) pfDHFR. Besides, the IC50 in series [3] was more than 50 µM; in series [4], 0.4 ± 0.07 µM; in “in vitro” it was more than 50 µM.
In the case of `CCc1nc(N)nc(N)c1OCCCc1cc(-c2ccc(Cl)cc2)no1` [Compound 45], the values for the Ki (in series [1]; in series [2]; at wild type (WT) pfDHFR) were 0.0039 ± 0.00068 µM, 0.037 ± 0.00536 µM and 0.00199 ± 0.00043 µM, respectively. Also, the IC50 is 6.37 ± 1.97 µM in series [3], 0.27 ± 0.08 µM in series [4] and more than 50 µM in “in vitro”.
Take `CCc1nc(N)nc(N)c1OCc1csc(-c2ccc(OCC(=O)O)cc2)n1` [Compound 73]: the values for the Ki (in series [1]; in series [2]; on wild type (WT) pfDHFR) were 0.0289 ± 0.00256 µM, 0.357 ± 0.0344 µM and 0.00065 ± 0.00014 µM, respectively. In addition, the figures for the IC50 (in series [3]; in series [4]; in “in vitro”) were more than 50 µM, 0.041 ± 0.006 µM and more than 50 µM, respectively.
Consider `CCc1nc(N)nc(N)c1OCc1csc(-c2ccc(C)cc2)n1` [Compound 67], for which the Ki was 0.0273 ± 0.00145 µM in series [1], more than 100 µM in series [2] and 0.00081 ± 5e-05 µM on wild type (WT) pfDHFR. The values for the IC50 (in series [3]; in series [4]; in the series “in vitro”) were 19 ± 6.7 µM, 1.02 ± 0.53 µM and 28.9 ± 5.74 µM, respectively.
Consider `CCc1nc(N)nc(N)c1OCc1coc(-c2cccc([N+](=O)[O-])c2)n1` [Compound 52], for which the Ki in series [1] was 0.0932 ± 0.025 µM; in series [2], more than 100 µM; on wild type (WT) pfDHFR, 0.00263 ± 0.00026 µM. Further, the IC50 is 15.1 ± 1.49 µM in series [3], 2.66 ± 0.31 µM in series [4] and more than 50 µM in “in vitro”.

In general, Ki refers to a dissociation constant, usually derived from enzyme kinetics or from competition with a known ligand.

The record behind these values is patent US11028072B2, “2,4-diamino-6-ethylpyrimidine derivatives with antimalarial activities against Plasmodium falciparum” (National Science and Technology Development Agency, priority 2015, dated 2021).
